Source: patent US8916567B2, “Certain crystalline hydrates, pharmaceutical compositions thereof and methods for preparation and use thereof” (Universal Technology Alliance, Inc., priority 2009, dated 2014)

Experiment: Stability under high temperature and high humidity (relative humidity 75%, 40° C.)
Type: physicochemical
Method: In order to further evaluate the effect of temperature, humidity and light on the quality of the crystalline compounds of the present disclosure, the hydrates were placed in a dessicator with a relative humidity of 75% and at a constant temperature of 40° C. The samples were then collected at 1, 2, 3, and 6 months. Results are shown in Tables 10-14, wherein the “related substances” mean all of the ingredients in a sample except the active material. The content of the related substances in a sample was measure by HPLC in accordance to the Chinese Pharmacopeia (2005 edition, Part II, Appendix V D).

[1] = water content by TGA, 0 month, hydrate
[2] = water content by TGA, 1 month, hydrate
[3] = water content by TGA, 2 months, hydrate
[4] = water content by TGA, 3 months, hydrate
[5] = water content by TGA, 6 months, hydrate

| Compound | Characters (0 month) | Related substances (%) (0 month, HPLC) | Characters (1 month) | Related substances (%) (1 month, HPLC) | Characters (2 months) | Related substances (%) (2 months, HPLC) | Characters (3 months) | Related substances (%) (3 months, HPLC) | Characters (6 months) | Related substances (%) (6 months, HPLC) | Related substances (%) (by HPLC, 0 month, hydrate) | Related substances (%) (by HPLC, 1 month, hydrate) | Related substances (%) (by HPLC, 2 months, hydrate) | Related substances (%) (by HPLC, 3 months, hydrate) | Related substances (%) (by HPLC, 6 months, hydrate) | TGA (%) [1] [%] | TGA (%) [2] [%] | TGA (%) [3] [%] | TGA (%) [4] [%] | TGA (%) [5] [%] | also measured |
| --- | --- | --- | --- | --- | --- | --- | --- | --- | --- | --- | --- | --- | --- | --- | --- | --- | --- | --- | --- | --- | --- |
| CC(=O)NC[C@H]1CN(c2ccc(N3CCN(c4ccccc4)CC3)c(F)c2)C(=O)O1 [1/12 hydrate, (S)—[N-3-(3′-fluoro-4′-(4″-phenylpiperazinyl))phenyl-2-oxo-5-oxazolidinyl]methyl acetamide 1/12 hydrate] | White powder | 0.94 | White powder | 0.88 | White powder | 0.90 | White powder | 0.92 | White powder | 0.93 |  |  |  |  |  |  |  |  |  |  | TGA (%) (0 month, hydrate): 0.40%; TGA (%) (1 month, hydrate): 0.38%; TGA (%) (2 months, hydrate): 0.39%; TGA (%) (3 months, hydrate): 0.40%; TGA (%) (6 months, hydrate): 0.42% |
| CC(=O)NC[C@H]1CN(c2ccc(N3CCN(c4ccccc4)CC3)c(F)c2)C(=O)O1 [2/7 hydrate, (S)—[N-3-(3′-fluoro-4′-(4″-phenylpiperazinyl))phenyl-2-oxo-5-oxazolidinyl]methyl acetamide 2/7 hydrate] | White powder |  | White powder |  | White powder |  | White powder |  | White powder |  | 0.91 | 0.89 | 0.90 | 0.91 | 0.95 | 1.20 | 1.21 | 1.19 | 1.23 | 1.21 |  |
| CC(=O)NC[C@H]1CN(c2ccc(N3CCN(c4ccccc4)CC3)c(F)c2)C(=O)O1 [3/4 hydrate, (S)—[N-3-(3′-fluoro-4′-(4″-phenylpiperazinyl))phenyl-2-oxo-5-oxazolidinyl]methyl acetamide 3/4 hydrate] | White powder | 0.94 | White powder | 0.88 | White powder | 0.90 | White powder | 0.92 | White powder | 0.93 |  |  |  |  |  |  |  |  |  |  | TGA (%) (0 month, listed as ¾ hydrate, hydrate): 3.10%; TGA (%) (1 month, listed as ¾ hydrate, hydrate): 3.11%; TGA (%) (2 months, listed as ¾ hydrate, hydrate): 3.10%; TGA (%) (3 months, listed as ¾ hydrate, hydrate): 3.09%; TGA (%) (6 months, listed as ¾ hydrate, hydrate): 3.10% |
| CC(=O)NC[C@H]1CN(c2ccc(N3CCN(c4ccccc4)CC3)c(F)c2)C(=O)O1 [½ hydrate, (S)—[N-3-(3′-fluoro-4′-(4″-phenylpiperazinyl))phenyl-2-oxo-5-oxazolidinyl]methyl acetamide 1/2 hydrate] | White powder |  | White powder |  | White powder |  | White powder |  | White powder |  | 0.90 | 0.88 | 0.92 | 0.90 | 0.94 | 2.14 | 2.15 | 2.16 | 2.20 | 2.10 |  |
| CC(=O)NC[C@H]1CN(c2ccc(N3CCN(c4ccccc4)CC3)c(F)c2)C(=O)O1 [⅖ hydrate, (S)—[N-3-(3′-fluoro-4′-(4″-phenylpiperazinyl))phenyl-2-oxo-5-oxazolidinyl]methyl acetamide 2/5 hydrate] | White powder |  | White powder |  | White powder |  | White powder |  | White powder |  | 0.93 | 0.89 | 0.91 | 0.93 | 0.92 | 1.71 | 1.73 | 1.70 | 1.72 | 1.72 |  |
